In patent publication US4303592A (priority 1980, dated 1981):
Where two headings read alike, the source gives them in different places.

Experiments:
Trypsin [1] = target: T1, Trypsin (Bos taurus, UniProt P00760); assay: inactivation of trypsin by meta amidinophenylmethylsulfonylfluoride; assay type: biochemical, bovine; settings: equimolar or greater amounts of reagent; FIG. 2
T1 sequence (P00760 24-246): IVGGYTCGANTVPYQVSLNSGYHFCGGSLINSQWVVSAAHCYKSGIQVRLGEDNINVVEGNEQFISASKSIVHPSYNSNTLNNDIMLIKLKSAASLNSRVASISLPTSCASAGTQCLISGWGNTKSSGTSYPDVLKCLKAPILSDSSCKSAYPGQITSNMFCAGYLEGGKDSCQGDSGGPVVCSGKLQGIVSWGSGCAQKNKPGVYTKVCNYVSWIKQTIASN
Method: (§1) m-Amidinophenylmethylsulfonylfluoride was tested for inhibitory activity against bovine trypsin and chymotrypsin.

chymotrypsin [2] = assay: inhibition of chymotrypsin by m-amidinophenylmethylsulfonylfluoride; assay type: biochemical; settings: 30 minutes, four-fold molar excess
Method: as §1

chymotrypsin [3] = assay: inhibition of bovine chymotrypsin; assay type: biochemical; settings: neutral pH, approximately 10-fold excess of reagent over enzyme; FIG. 1
Cl-s = target: T2, Cl-s (Homo sapiens, UniProt P09871); assay: inhibition/inactivation of human Cls; assay type: biochemical; settings: for % Activity Remaining: Cl-s 27.5 μM, PAPMSF 64 μM
T2 sequence (P09871 438-688 limits assumed): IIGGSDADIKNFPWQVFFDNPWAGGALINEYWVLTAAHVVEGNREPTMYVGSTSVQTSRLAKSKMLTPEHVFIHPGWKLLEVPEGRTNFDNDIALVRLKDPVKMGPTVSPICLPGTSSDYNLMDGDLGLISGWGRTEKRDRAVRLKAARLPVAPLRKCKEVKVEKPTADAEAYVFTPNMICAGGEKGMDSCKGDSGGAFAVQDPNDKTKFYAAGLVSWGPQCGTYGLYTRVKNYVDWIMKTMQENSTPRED
T2 sequence (P09871 16-437 partner limits assumed): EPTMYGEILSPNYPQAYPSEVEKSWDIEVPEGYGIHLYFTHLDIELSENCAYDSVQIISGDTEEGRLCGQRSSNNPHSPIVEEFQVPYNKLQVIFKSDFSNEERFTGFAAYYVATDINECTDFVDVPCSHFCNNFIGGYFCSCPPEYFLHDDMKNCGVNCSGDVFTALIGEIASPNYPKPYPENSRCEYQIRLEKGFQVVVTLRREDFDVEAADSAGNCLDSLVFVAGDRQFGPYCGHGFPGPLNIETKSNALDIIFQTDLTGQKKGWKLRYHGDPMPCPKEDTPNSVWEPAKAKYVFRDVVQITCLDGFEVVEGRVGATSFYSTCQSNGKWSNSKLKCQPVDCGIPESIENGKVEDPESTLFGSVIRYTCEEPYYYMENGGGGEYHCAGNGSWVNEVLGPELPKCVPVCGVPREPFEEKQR

Thrombin = Thrombin (Homo sapiens, UniProt P00734); assay: inhibition/inactivation of human thrombin; assay type: biochemical; settings: for % Activity Remaining: Thrombin 74.5 μM, PAPMSF 159 μM
Trypsin [4] = target: T1, Trypsin; assay: inhibition/inactivation of bovine trypsin; assay type: biochemical; settings: for % Activity Remaining: Trypsin 60.6 μM, PAPMSF 127 μM
acetyl cholinesterase = assay: inhibition of bovine acetyl cholinesterase
serine proteases [5] = assay: serine protease inactivation by known inactivators (background); assay type: biochemical; settings: approximately 2:1 reagent:enzyme; Table 1
serine proteases [6] = assay: reactivity of para versus meta form
Cl-r = assay: inhibition/inactivation of human Clr; assay type: biochemical
trypsin [7] = settings: large excess with respect to enzyme; cited from earlier work
chymotrypsin [8] = settings: large excess with respect to enzyme; cited from earlier work
[9] = neutral pH, approximately 10-fold excess of reagent over enzyme, FIG. 1

N=C(N)c1cccc(CS(=O)(=O)F)c1 [MAPMSF, m-Amidinophenylmethylsulfonylfluoride]
inactivation (in words) (Trypsin [1]): slowly inactivated
loss of activity (chymotrypsin [2]): no loss of activity

N=C(N)c1ccc(CS(=O)(=O)F)cc1 [PAPMSF, p-amidinophenylmethylsulfonylfluoride]
inhibition (in words) (chymotrypsin [3]): not inhibited
% Activity Remaining (Cl-s; 1 min): 60%
% Activity Remaining (Cl-s; 5 min): 59%
% Activity Remaining (Cl-s; 10 min): 52%
inactivation (in words) (Cl-s; [9]): rapidly inactivated
% Activity Remaining (Thrombin; 1 min): 26%
% Activity Remaining (Thrombin; 5 min): 24%
% Activity Remaining (Thrombin; 10 min): 21%
inactivation (in words) (Thrombin; [9]): rapidly inactivated
stability in water at high pH (stability; aqueous solutions above pH 8): can hydrolyze to sulfonic acid in water at high pH
stability in solution in organic solvents (stability; methanol, acetone, ethanol, dimethylsulfoxide, acetonitrile, dimethylformamide and the like): stable in solution in organic solvents
stability of salts at physiological conditions (stability; pH and contact with aqueous based body fluids): good stability at physiological conditions
solubility (solubility in water): ≤ 10 mM
% Activity Remaining (Trypsin [4]; 1 min): 0%
% Activity Remaining (Trypsin [4]; 5 min): 0%
% Activity Remaining (Trypsin [4]; 10 min): 0%
recovery of enzymatic activity after dialysis (irreversibility) (Trypsin [4]; dialysis of inactivated trypsin): did not lead to recovery of enzymatic activity
inactivation (in words) (Trypsin [4]; [9]): rapidly inactivated
rate of inactivation of trypsin, pH dependence (Trypsin [4]; pH 3.0, 5.0 or 7.4): essentially unchanged
reaction with acetyl cholinesterase (in words) (acetyl cholinesterase): does not react with acetyl cholinesterase
toxic properties compared with diisopropylfluorophosphate (in words) (acetyl cholinesterase; inferred from lack of reaction with acetyl cholinesterase): does not have the toxic properties previously described for diisopropylfluorophosphate
inhibition (in words) (acetyl cholinesterase; [9]): not inhibited
inhibition at lower concentrations (in words) (serine proteases [5]): still an effective inhibitor
reactivity / activity relative to meta form (serine proteases [6]): higher activity than the meta form
% Activity Remaining (Cl-r; Cl-r 4.8 μgm/ml, PAPMSF 130 μM, 10 min): 25%
inactivation (in words) (Cl-r; [9]): rapidly inactivated

O=S(=O)(F)Cc1ccccc1 [Phenylmethanesulfonylfluoride]
inhibition (in words) (trypsin [7]): inhibits both trypsin and chymotrypsin
inhibition (in words) (chymotrypsin [8]): inhibits both trypsin and chymotrypsin
